What follows are compounds tested against Cyclin-dependent kinase 7 (Homo sapiens, UniProt P50613) (assay: off-target CDK7 activity blockade – biochemical, 57K library addition, counter-screen for PKD inhibitor project, dose response (AID 1380)).
Sequence of Cyclin-dependent kinase 7 (P50613 whole entry): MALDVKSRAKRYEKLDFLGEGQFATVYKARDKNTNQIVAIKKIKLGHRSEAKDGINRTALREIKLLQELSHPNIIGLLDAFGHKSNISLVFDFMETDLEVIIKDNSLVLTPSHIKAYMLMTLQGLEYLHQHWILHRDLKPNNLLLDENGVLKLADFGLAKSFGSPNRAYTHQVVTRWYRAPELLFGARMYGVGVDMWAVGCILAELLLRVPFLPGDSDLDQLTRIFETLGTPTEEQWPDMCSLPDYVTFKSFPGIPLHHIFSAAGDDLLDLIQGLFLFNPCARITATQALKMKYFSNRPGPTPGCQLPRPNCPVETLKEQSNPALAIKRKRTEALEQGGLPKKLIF

| Structure (SMILES) | IC50 |
| --- | --- |
| CSc1ccccc1C(=O)NCc1ccc(F)cc1 | > 100 µM |
| O=C(CSc1ccc2nnc(-c3cccnc3)n2n1)c1ccccc1 [1-phenyl-2-[[3-(3-pyridinyl)-[1,2,4]triazolo[4,3-b]pyridazin-6-yl]thio]ethanone] | > 100 µM |
| CCOC(=O)c1sc(=NC(=O)CCS(=O)(=O)c2ccccc2)n(C)c1C [2-[3-(benzenesulfonyl)-1-oxopropyl]imino-3,4-dimethyl-5-thiazolecarboxylic acid ethyl ester] | > 100 µM |
| CCCc1cc(=O)[nH]c(SCCCCN2C(=O)c3ccccc3C2=O)n1 [2-[4-[(4-oxidanylidene-6-propyl-1H-pyrimidin-2-yl)sulfanyl]butyl]isoindole-1,3-dione] | > 100 µM |
| Cc1c(C#N)c(N)nc(Cl)c1C#N [2-amino-6-chloro-4-methyl-3,5-pyridinedicarbonitrile] | > 100 µM |
| CC(N=Nc1ncc(Cl)cc1Cl)c1ccccn1 (stereo not drawn) [3,5-dichloro-N-(1-pyridin-2-ylethylideneamino)pyridin-2-amine] | > 100 µM |
| O=C1CSCN1c1cc(Cl)ccc1Cl [3-(2,5-dichlorophenyl)-1,3-thiazolan-4-one] | > 100 µM |
| O=C(O)c1cc(C(=O)C2CCCCC2)c[nH]1 [4-(cyclohexylcarbonyl)-1H-pyrrole-2-carboxylic acid] | > 100 µM |
| CC1Cc2ccccc2N1c1ncnc(N)c1[N+](=O)[O-] (stereo not drawn) [6-(2-methyl-2,3-dihydro-1H-indol-1-yl)-5-nitro-4-pyrimidinamine] | 8.22 µM |
| Cc1cc(NC(=O)CCC(=O)N(Cc2ccco2)C(C(=O)NCC2CCCO2)c2ccncc2)no1 (stereo not drawn) [N'-(furan-2-ylmethyl)-N-(5-methyl-1,2-oxazol-3-yl)-N'-[2-oxidanylidene-2-(oxolan-2-ylmethylamino)-1-pyridin-4-yl-ethyl]butanediamide] | > 100 µM |
| O=C(CSc1ccncc1)Nc1ccc2ccccc2c1 [N-naphthalen-2-yl-2-pyridin-4-ylsulfanylacetamide] | > 100 µM |
| Cn1cccc1C(=O)NC(=O)COC(=O)c1cc(S(=O)(=O)N2CCCCC2)ccc1Cl [[2-[(1-methylpyrrol-2-yl)carbonylamino]-2-oxidanylidene-ethyl] 2-chloranyl-5-piperidin-1-ylsulfonyl-benzoate] | > 100 µM |

Further lines, results first:

| IC50 | Structure (SMILES) |
| --- | --- |
| > 100 µM | O=[N+]([O-])c1ccc(Nc2c3ccccc3nc3ccccc23)cc1 [MLS000723809] |
| > 100 µM | COc1ccc(Cn2c(=O)[nH]c3cc(C(=O)NC4CCCC4)ccc3c2=O)cc1 [MLS000730065] |
| > 100 µM | O=C(NNC1=Nc2cccc3cccc1c23)c1ccc(Br)cc1 [SMR000260645] |
| > 100 µM | O=C(Nc1ccccc1C(=O)N1CCCC1)C1COc2ccccc2O1 (stereo not drawn) [SMR000287780] |
| > 100 µM | COC(=O)c1c(NC(=O)C2C3CCC(C3)C2C(=O)O)sc2c1CCCCC2 (stereo not drawn) [SMR000298221] |
| > 100 µM | COc1ccc(CNC(=O)C2Cc3ccccc3CN2C(=O)c2ccco2)cc1 (stereo not drawn) [SMR000343177] |
